Measured values from patent US4618677A, “Substituted phenylalkyl-(piperazinyl or homopiperazinyl)alkyl-thiols and -thiocarbamates useful for the treatment of immunological, inflammatory, and allergic disorders” (Boehringer Ingelheim Limited, priority 1984, dated 1986).
Several values for one entry are separate records, joined by “and”; a condition that tells them apart may be missing. Identical values can stand only once. Counter-ions that a name gives are not always drawn. Like-named read-outs stand apart in the source and are kept apart here.

Key:
[1] = tested on: human leukocytes (basophils); assay: Inhibition of IgE-mediated histamine release from human leukocytes (basophils), Procedure A; format: cell-based; settings: for IC50: Leukocyte, 1 h, read-out: In Vitro Inhibition of Histamine Release IC50 (μM) Procedure A
Protocol: A. Procedure for Determining Inhibition of Histamine Release from Human Leukocytes (Basophils)
Separation of Leukocytes: A modification of the method of L. Lichtenstein and A. Osler, J. Exp. Med. 120, 507 (1964) is used. Heparinized human blood (80-100 ml) is mixed with 20 ml of saline (0.2%) containing 0.6 gm of dextrose and 1.2 gm of dextran in propylene centrifuge tubes. The mixture is kept at ambient temperature for 60-90 minutes to allow the separation of erythrocytes from the platelet-leukocyte-rich supernate. The supernate is removed and centrifuged for 8 minutes at 110 ×g in cold. The leukocyte pellet is washed twice with Tris buffer and finally suspended in 150-180 ml Tris-ACM buffer at 1-2 ×10^6 cells/ml.
Reaction Mixture: The reaction is carried out in 12×75 mm plastic tubes at a total volume of 1.23 ml. The reaction medium includes 0.05 ml rabbit anti-human IgE (the antigen), 0.2 ml of the test compound in water at concentrations ranging from 10-100 μM, and 1.0 ml of the leukocyte suspension. The reaction mixture is incubated in a 37° C. shaking water bath for 60 minutes. Upon completion of the reaction, the tubes are centrifuged and the supernatants collected. The protein is removed from the supernatants by precipitation with 0.2 ml of 8% perchloric acid.
Histamine Assay: Histamine release is measured by the automated fluorometric method of W. Siraganian and W. Hook in Chapter 102 of the Manual of Clinical Immunology, 2nd Edition, edited by R. Rose and H. Friedman, published by the American Society for Microbiology, Washington, D.C., 1980. Percent inhibition is calculated as follows: [formula]
The concentration which causes a 50 percent inhibition (IC50) of histamine release is interpolated from a plot of percent inhibition versus logarithm of drug concentration.

histamine (H1) receptor = target: T1, histamine (H1) receptor (Cavia porcellus, UniProt P31389); assay: Antagonism of histamine-induced contraction of isolated guinea pig ileum; format: tissue-based; settings: histamine final concentration 0.2 μg/ml, 50% reduction of contractile response, read-out: Inhibition IC50 (μM) of histamine-induced contraction
T1 construct: contraction of isolated guinea pig ileum; from tissue; host or cells: isolated guinea pig ileum
From the text: Certain compounds of formula I inhibit in vitro the histamine-induced contraction of isolated guinea pig ileum and are useful in warm-blooded animals for antagonizing the action of histamine at the histamine (H1) receptor. Accordingly, these compounds can be employed in a conventional manner as antihistamine agents for the treatment of allergic disorders, for example allergic rhinitis, vasomotor rhinitis, allergic conjunctivitis, hay fever, urticaria, and food allergies.
The antagonism of the effects of histamine on the contraction of isolated guinea pig ileum by the compounds of formula I can be determined by the procedure of G. Possanza, A. Bauen, and P. Stewart, Int. Arch. Allergy Appl. Immunol., 49, 289 (1975). The degree of inhibition is determined as the difference between the contraction caused by histamine (final concentration 0.2 μg/ml) alone and that seen in the presence of both histamine and the test compound. The inhibitory activity of the test compound is expressed as that concentration of the compound which causes a 50% reduction of the contractile response (IC50).

guinea pig basophils = assay: Inhibition of histamine release from guinea pig basophils, Procedure C; format: cell-based; settings: Cavia porcellus, 1 h; from guinea pig basophils (ovalbumin-sensitized); 60 min at 37° C.; > = no response detected at highest dose indicated; read-out: In Vitro Inhibition of Histamine Release IC50 (μM) Procedure C
Protocol: C. Procedure for Determining Inhibition of Histamine Release from Guinea Pig Basophils
1. In Vivo Sensitization: Male Hartley guinea pigs (200-300 gm) are immunized on day 0 with two 0.05 ml intradermal injections of 200 μg ovalbumin. Sensitized basophils are available between days 13-25 post-sensitization. This mode of sensitization favors IgE response.
2. Separation of Leukocytes: The method of Lett-Brown et al., Int. Arch. Allergy, Appl. Immun. 64, 241 (1981) is used. Animals are anesthetized with ether and are bled via cardiac puncture, with plastic syringes containing sufficient EDTA to provide a final concentration of 10 mM.
One part of 3% gelatin in saline at 37° C. is mixed with 2 parts of blood in a 16×150 mm tube. The cells are allowed to sediment at a 30° angle for 45 minutes in a 37° C. water bath. The leukocyte-rich plasma is collected and centrifuged at 150×g for 30 minutes at room temperature. The pelleted cells are washed in Hepes-buffered saline (HG) containing 4 mM EDTA and resuspended in Hepes-buffered saline containing […] and Ca^++ (HGCM) at 4-5×10^6 cells/ml.
3. Reaction Mixture: The reaction is carried out in 12×75 mm plastic tubes and a total volume of 1.2 ml which includes 0.5 ml of antigen, 0.2 ml of drug solution at concentrations ranging from 10-1000 μM and 0.5 ml of prewashed cell suspension. The reaction mixture is incubated in a 37° C. shaking water bath for 60 minutes. Upon completion of the reaction, the tubes are centrifuged and the supernatants collected. The protein is removed from the supernatants by precipitation with 0.2 ml of 8% perchloric acid.
4. Histamine Assay: Histamine release is measured by the automated fluorometric method of Siraganian, supra. The concentration which causes a 50 percent inhibition of histamine release is computed as in Part A.

[2] = tested on: rat peritoneal mast cells; assay: Inhibition of histamine release from rat peritoneal mast cells, Procedure B; format: cell-based; settings: Mast cell, 1 h; from rat peritoneal mast cells; sheep anti-rat IgE or ovalbumin; 60 min at 37° C.; read-out: In Vitro Inhibition of Histamine Release IC50 (μM) Procedure B
Protocol: B. Procedure for Determining Inhibition of Histamine Release from Rat Peritoneal Mast Cells
Harvest of Peritoneal Mast Cells: After the rats are sacrificed with ether, 20 ml of Minimum Essential Medium (MEM) containing 20 units/ml heparin is injected into the peritoneum. The abdomen is massaged for one minute and the lavage fluid collected. The peritoneal cells are centrifuged at 1800 rpm for 8 minutes in cold. After two washes with Tris A buffer, the cells are resuspended in Tris ACM buffer at 2-4×10^6 cells/ml.
Reaction mixture: The reaction is carried out in 12×75 mm plastic tubes at a total volume of 1.25 ml. The reaction mixture includes 0.5 ml (10-1000 μg) sheep anti-rat IgE or ovalbumin, 0.2 ml of the test compound in water at concentrations ranging from 10-1000 μM, 0.5 ml phosphatidylserine solution (20-60 μg to each tube), and 0.5 ml of cell suspension.
The concentration which causes a 50% inhibition (IC50) of histamine release is computed as in Part A.

[3] = from human basophils, rabbit anti-human IgE as antigen, 60 min at 37° C., > = no response detected at highest dose indicated

T1 sequence (P31389 whole entry): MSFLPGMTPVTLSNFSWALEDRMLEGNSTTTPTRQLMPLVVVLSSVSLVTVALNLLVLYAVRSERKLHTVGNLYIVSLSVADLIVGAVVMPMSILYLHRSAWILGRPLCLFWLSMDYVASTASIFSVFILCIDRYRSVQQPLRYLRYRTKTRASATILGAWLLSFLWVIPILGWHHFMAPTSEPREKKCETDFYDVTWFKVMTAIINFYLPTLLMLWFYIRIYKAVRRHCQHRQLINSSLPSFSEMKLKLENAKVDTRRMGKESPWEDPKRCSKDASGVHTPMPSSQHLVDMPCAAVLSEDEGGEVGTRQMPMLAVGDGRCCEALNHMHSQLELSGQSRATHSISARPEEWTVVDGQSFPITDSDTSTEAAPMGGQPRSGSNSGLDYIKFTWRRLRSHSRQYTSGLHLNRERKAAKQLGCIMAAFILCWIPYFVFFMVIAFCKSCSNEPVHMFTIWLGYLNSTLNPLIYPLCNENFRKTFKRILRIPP

Compound | IC50 [1, 3] | other results
SCCCN1CCN(Cc2ccccc2)CC1 [Example 1, 3-(4-Benzylpiperazin-1-yl)propanethiol dihydrochloride] |  | IC50 ([1]; Homo sapiens): 140 µM
SCCCN1CCN(Cc2ccc(Cl)cc2)CC1 [Example 3, 3-[4-(4-Chlorobenzyl)piperazin-1-yl]propanethiol dihydrochloride] |  | IC50 ([1]; Homo sapiens): 4 µM
CNC(=O)SCCCN1CCN(Cc2ccc(Cl)cc2)CC1 [Example 4, N-Methyl-S-{3-[4-(4-chlorobenzyl)piperazin-1-yl]propyl}thiocarbamate dihydrochloride] |  | In Vitro Inhibition of Histamine Release IC50 (μM) Procedure A [1, 3]: Int.; IC50 (histamine (H1) receptor): 0.19 µM
CC(C)NC(=O)SCCCN1CCN(Cc2ccc(Cl)cc2)CC1 [Example 5, N-Isopropyl-S-{3-[4-(4-chlorobenzyl)piperazin-1-yl]propyl}thiocarbamate dihydrochloride] |  | In Vitro Inhibition of Histamine Release IC50 (μM) Procedure A [1, 3]: Int.; IC50 (histamine (H1) receptor): 0.21 µM and 0.3 µM
COc1ccc(NC(=O)SCCCN2CCN(Cc3ccc(Cl)cc3)CC2)cc1 [Example 14, N-(4-Methoxyphenyl)-S-{3-[4-(4-chlorobenzyl)piperazin-1-yl]propyl}thiocarbamate dihydrochloride monohydrate] |  | IC50 (histamine (H1) receptor): 0.12 µM
Cc1ccc(CN2CCN(CCCS)CC2)cc1 [Example 17, 3-[4-(4-Methylbenzyl)piperazin-1-yl]propanethiol dihydrochloride] |  | IC50 ([1]; Homo sapiens): 24 µM
CC1CN(Cc2ccc(Cl)cc2)C(C)CN1CCCSC(=O)Nc1ccccc1 (stereo not drawn) [Example 20, N-Phenyl-S-{3-[4-(4-chlorobenzyl)-2,5-dimethylpiperazin-1-yl]propyl}thiocarbamate dihydrochloride] | > 1000 µM | 
CC(c1ccccc1)N1CCN(CCCSC(=O)Nc2ccccc2)CC1 (stereo not drawn) [Example 22, N-Phenyl-S-{3-[4-(1-phenylethyl)piperazin-1-yl]propyl}thiocarbamate dihydrochloride dihydrate] | 67 µM | 
O=C(Nc1ccccc1)SCCCN1CCN(CCc2ccccc2)CC1 [Example 24, N-Phenyl-S-[3-(4-phenethylpiperazin-1-yl)propyl]thiocarbamate dihydrochloride monohydrate] | > 1000 µM | 
SCCCN1CCN(CCc2ccc(Cl)cc2)CC1 [Example 25, 3-[4-(4-Chlorophenethyl)piperazin-1-yl]propanethiol dihydrochloride] | 5 µM | IC50 (guinea pig basophils): 5 µM; IC50 [2]: 4 µM
CCCCc1ccc(NC(=O)SCCCN2CCN(CCc3ccc(Cl)cc3)CC2)cc1 [Example 27, N-(4-n-Butylphenyl)-S-{3-[4-(4-chlorophenethyl)piperazin-1-yl]propyl}thiocarbamate dihydrochloride] | 30 µM | 
COc1cc(NC(=O)SCCCN2CCN(CCc3ccc(Cl)cc3)CC2)cc(OC)c1OC [Example 29, N-(3,4,5-Trimethoxyphenyl)-S-{3-[4-(4-chlorophenethyl)piperazin-1-yl]propyl}thiocarbamate dihydrochloride] | 9 µM | IC50 (histamine (H1) receptor): 0.18 µM
O=C(Nc1ccccc1)SCCCN1CCN(c2ccc(F)cc2)CC1 [Example 35, N-Phenyl-S-{3-[4-(4-fluorophenyl)piperazin-1-yl]propyl}thiocarbamate dihydrochloride] | > 1000 µM | 
COc1ccc(NC(=O)SCCCN2CCN(CCCc3ccc(Cl)cc3)CC2)cc1 [Example 39, N-(4-Methoxyphenyl)-S-{3-[4-[3-(4-chlorophenyl)propyl]piperazin-1-yl]propyl]thiocarbamate dihydrochloride hemihydrate] | 13 µM | 
CCCCCCNC(=O)SCCCN1CCN(Cc2ccc(Cl)cc2)CC1 [Example 40, N-(n-Hexyl)-S-{3-[4-(4-chlorobenzyl)piperazin-1-yl]propyl}thiocarbamate dihydrochloride] | 71 µM | 
CCCCCCNC(=O)SCCCN1CCN(CC=Cc2ccccc2)CC1 [Example 44, N-(n-Hexyl)-S-[3-(4-cinnamylpiperazin-1-yl)propyl]thiocarbamate dihydrochloride] | > 1000 µM | 
SCCCN1CCCN(Cc2ccc(Cl)cc2)CC1 [Example 45, 3-[4-(4-Chlorobenzyl)homopiperazin-1-yl]propanethiol] | 3 µM | 
CCCCCCNC(=O)SCCCN1CCCN(Cc2ccc(Cl)cc2)CC1 [Example 46, N-(n-Hexyl)-S-{3-[4-(4-chlorobenzyl)homopiperazin-1-yl]propyl}thiocarbamatedihydrochloride] | 12 µM | 
CC(C)(C)NC(=O)SCCCN1CCN(Cc2ccc(Cl)cc2)CC1 [Example 47, N-(t-Butyl)-S-{3-[4-(4-chlorobenzyl)piperazin-1-yl]propyl}thiocarbamate dihydrochloride sesquihydrate] | 58 µM | 

The next lines start with results.

IC50 [1, 3] | Compound | other results
310 µM | O=C(Nc1ccccc1)SCCCN1CCN(Cc2ccccc2)CC1 [Example 2, N-Phenyl-S-[3-(4-benzylpiperazin-1-yl)propyl]thiocarbamate dihydrochloride monohydrate] | 
2.6 µM | O=C(Nc1ccccc1)SCCCN1CCN(Cc2ccc(Cl)cc2)CC1 [Example 7, N-Phenyl-S-{3-[4-(4-chlorobenzyl)piperazin-1-yl]propyl}thiocarbamate dihydrochloride] | IC50 (guinea pig basophils): 13 µM; IC50 [2]: 3 µM
760 µM | CCCCc1ccc(NC(=O)SCCCN2CCN(Cc3ccc(Cl)cc3)CC2)cc1 [Example 8, N-(4-n-Butylphenyl)-S-{3-[4-(4-chlorobenzyl)piperazin-1-yl]propyl}thiocarbamate dihydrochloride] | 
11 µM | O=C(Nc1ccc(F)cc1)SCCCN1CCN(Cc2ccc(Cl)cc2)CC1 [Example 9, N-(4-Fluorophenyl)-S-{3-[4-(4-chlorobenzyl)piperazin-1-yl]propyl}thiocarbamate dihydrochloride] | IC50 (histamine (H1) receptor): 0.12 µM
47 µM | O=C(Nc1ccc(Cl)cc1)SCCCN1CCN(Cc2ccc(Cl)cc2)CC1 [Example 10, N-(4-Chlorophenyl)-S-{3-[4-(4-chlorobenzyl)piperazin-1-yl]propyl}thiocarbamate dihydrochloride monohydrate] | 
> 1000 µM | O=C(Nc1ccc(Cl)c(Cl)c1)SCCCN1CCN(Cc2ccc(Cl)cc2)CC1 [Example 11, N-(3,4-Dichlorophenyl)-S-{3-[4-(4-chlorobenzyl)piperazin-1-yl]propyl}thiocarbamate dihydrochloride] | 
> 300 µM | COc1ccccc1NC(=O)SCCCN1CCN(Cc2ccc(Cl)cc2)CC1 [Example 12, N-(2-Methoxyphenyl)-S-{3-[4-(4-chlorobenzyl)piperazin-1-yl]propyl}thiocarbamate dihydrochloride sesquihydrate] | 
140 µM | COc1cccc(NC(=O)SCCCN2CCN(Cc3ccc(Cl)cc3)CC2)c1 [Example 13, N-(3-Methoxyphenyl)-S-{3-[4-(4-chlorobenzyl)piperazin-1-yl]propyl}thiocarbamate dihydrochloride] | 
> 1000 µM | Cc1ccc(CN2CCN(CCCSC(=O)Nc3ccccc3)CC2)cc1 [Example 18, N-Phenyl-S-{3-[4-(4-methylbenzyl)piperazin-1-yl]propyl}thiocarbamate dihydrochloride sesquihydrate] | 
25 µM | O=C(Nc1ccccc1)SCCCN1CCN(CCc2ccc(Cl)cc2)CC1 [Example 26, N-Phenyl-S-{3-[4-(4-chlorophenethyl)piperazin-1-yl]propyl}thiocarbamate dihydrochloride monohydrate] | IC50 (histamine (H1) receptor): 0.06 µM
3 µM | O=C(Nc1ccccc1)SCCN1CCN(Cc2ccc(Cl)cc2)CC1 [Example 37, N-phenyl-S-{2-[4-(4-chlorobenzyl)piperazin-1-yl]ethyl}thiocarbamate dihydrochloride] | 
